Common to all, as to assay: In vitro cytotoxicity evaluation (cell proliferation inhibition, SRB dye)
Type in all cases: cell-based, human
A general note: In SRB staining, fixed cells bind dye roughly in proportion to their protein.

The test system of data set [1] is MCF-7 (HER2 negative to normal). The settings on record: MCF7 cells, SRB viable cell count; no 144 h footnote (168-hour treatment group). The protocol:
(§1) The cell proliferation inhibitory activity of the drug and ADCs listed in Table 2 below on cancer cell lines was measured. As the cancer cell lines, commercially available human breast cancer cell lines MCF-7 (HER2 negative to normal), SK-BR3 (HER2 positive), and JIMT-1 (HER2 positive) were used. MMAE was used as the drug, and the ADCs in Table 1 were used as the ADC. Each cancer cell line was seeded in a 96-well plate at 2,500 to 5,000 cells per well for 144-hour treatment group and 1,500 to 3,000 cells per well for 168-hour treatment group, cultured for 24 hours, and then treated with the ADCs and drug at concentrations of 0.00015 to 10.0 nM (4-fold serial dilution) or 0.0015 to 10 nM (3-fold serial dilution). After 144/168 hours, the number of viable cells was quantified using SRB (sulforhodamine B) dye.

Data set [2] concerns SK-BR3 (HER2 positive). Particulars: SK-BR3 cells, SRB viable cell count; no 144 h footnote (168-hour treatment group). The protocol:
as §1

Data set [3] relates to JIMT-1 (HER2 positive). Particulars: JIMT-1 cells, SRB viable cell count; no 144 h footnote (168-hour treatment group). The protocol: as §1

Non-standard residues stand in square brackets, D forms with d. Residues, ends and D or L forms follow the SMILES beside them. *: point of attachment. Dolaproine = CO[C@@H]([C@@H]1CCCN1)[C@@H](C)C(=O)O; Dil = CC[C@H](C)[C@H](NC)[C@@H](CC(=O)O)OC; X1 = C[C@@H](N*)[C@@H](O)c1ccccc1; NMeV = CN[C@H](C(=O)O)C(C)C

The term CC50 denotes the concentration that lowers cell viability or growth by half. Lower therefore signals greater toxicity to the cells. Take `CC[C@H](C)[C@@H]([C@@H](CC(=O)N1CCC[C@H]1[C@H](OC)[C@@H](C)C(=O)N[C@H](C)[C@@H](O)c1ccccc1)OC)N(C)C(=O)[C@@H](NC(=O)[C@@H](NC)C(C)C)C(C)C` [MMAE, monomethyl auristatin E] (H-[NMeV]V[Dil][Dolaproine]-X1): the cytotoxic concentration (CC50) is 0.31 nM in data set [1], 0.12 nM in data set [2] and 0.09 nM in data set [3].

Source of the values: patent US20220226496A1, “LIGAND-DRUG CONJUGATE INCLUDING LINKER HAVING TRIS STRUCTURE” (LEGOCHEM BIOSCIENCES, INC., priority 2019, published 2022).
